Legend:
[1] = tested on: anti-CD19 CAR-T cells co-cultured with irradiated K562-CD19 target cells; assay: Cytokine secretion after antigen stimulation (Luminex); type: cell-based, human; conditions: cells expanded with 200 nM PI-103 or 1 μM Compound 63; E:T 1:1, ~16 hours
Method: (§1) Separate compositions of CD4+ and CD8+ cells were isolated from three human donors, activated and transduced with a viral vector encoding an anti-CD19 CAR substantially as described in Example 2. After transduction, the CD4+ and CD8+ T cells derived from each donor were separately incubated for 8 days in the presence of a mTOR kinase inhibitor to expand T cells substantially as described in Example 2, except in the presence of 200 nM PI-103, 1 μM Compound 63, or with DMSO vehicle or media only controls. CD4+ and CD8+ T cells from each donor were then separately harvested, formulated, and cryofrozen. The cryofrozen engineered CD4+ and CD8+ T cells were thawed, washed to remove compound, and cells from the same donor were then combined at a ratio of 1:1 viable CD4+/CAR+ to viable CD8+/CAR+ T cells to produce an expanded anti-CD19 CAR-T cell composition containing CD4+ and CD8+ T cells. Functional activities of the generated anti-CD19 CAR-T cell compositions were assessed.
To measure cytokines following antigen stimulation, cells from the generated anti-CD19 CAR-T cell compositions were co-cultured with irradiated K562-CD19 target cells or K562 parental target cells at an effector:target cell ratio of 1:1. After overnight (˜16 hours) culture, cell culture supernatants were harvested and TNF-alpha, IFN-gamma, and IL-2 cytokine production were measured using a Luminex Multiplex Assay. The fold-change of cytokine production observed in co-culture supernatants was determined from generated anti-CD19 CAR-T cell compositions expanded in the presence of PI-103, Compound 63, or DMSO vehicle compared to cells expanded in media only.

Raji cells = assay: Raji tumor xenograft model, CAR-T cells expanded with inhibitor; type: in vivo, nod scid gamma (NSG) immunodeficient mice; conditions: for tumor burden (bioluminescence) compared with DMSO vehicle: low (0.25×10^6) or high (1.0×10^6) dose of CAR+ T cells expanded with the inhibitor; for survival compared to mice administered CAR-T cells expanded with DMSO vehicle: low or high dose of CAR-T cells expanded with the inhibitor
Method: Anti-tumor effects of the generated anti-CD19 CAR-T cell compositions, generated by expansion in the presence of PI-103, Compound 63 or media only as described in Example 2, was assessed. The tumor xenograft mouse model was generated by implanting nod scid gamma (NSG) immunodeficient mice with 0.5×10^6 Raji cells (an immortalized human B lymphocyte tumor cell line that expresses CD19), which were allowed to engraft. The Raji cells were transfected with firefly luciferase to facilitate detection by bioluminescence imaging. After seven days, mice either received no treatment, DMSO vehicle, or a low dose (0.25×10^6) or a high dose (1.0×10^6) dose of CAR+ T cells of the generated anti-CD19 CAR-T cell compositions. Tumor burden was assessed by bioluminescence weekly or every 10 days.

[2] = tested on: CD8+ and CD4+ T cells of anti-CD19 CAR-T cell compositions; assay: Intracellular polyfunctional cytokine profiles; type: cell-based, human; conditions: cells expanded with 200 nM PI-103 or 1 μM Compound 63; PMA/Ionomycin + Golgi Inhibitor or Golgi Inhibitor alone, 5 hours
Method: as §1
Intracellular cytokines, CD107a, IFN-gamma ([…]), IL-2, IL-17a, and TNF-alpha (TNFα), were assessed in co-cultured T cells that were split into two groups and further incubated for 5 hours with PMA/Ionomycin and a Golgi Inhibitor or a Golgi Inhibitor alone. The intracellular cytokine accumulation was expressed as a fold change in frequency of cytokine positive cells from media-only controls. […]

CD4+ and/or CD8+ T cells = assay: RNA-Seq gene expression of CAR-T cells expanded with inhibitor; type: cell-based, human; conditions: FDR≤10%
Method: Gene expression among cells of the generated anti-CD19 CAR-T cell compositions described in Example 2, generated by expanding the cells in the presence of PI-103, Compound 63, DMSO vehicle, or media only, was assessed by RNA sequencing (RNA-Seq). RNA was extracted from compositions generated from three donors under each expansion condition and an assessment of the whole-transcriptome was performed by RNA-Seq. FPKM and FPKQ values were determined; FPKQ values were log-transformed (log 2). Gene expression was determined by comparing expression profiles of CD4+, CD8+ or combined CD4+/CD8+ cells among cells of the generated anti-CD19 CAR-T cell compositions that were expanded in the presence of media only, PI-103, or Compound 63, as compared to cells expanded with DMSO vehicle. Gene products were identified that were different among each groups based on analysis of a volcano plot by imposing cutoff of FDR≤10% between the two conditions.

[3] = tested on: anti-CD19 CAR-T cells stimulated with irradiated K562-CD19 target cells; assay: Secondary cytokine response after anti-idiotype bead expansion; type: cell-based, human; conditions: for secondary cytokine production following subsequent stimulation with antigen: cells harvested at day 11 after anti-idiotype bead expansion, K562-CD19 1:1, approximately 16 hours

Structure (SMILES) | cytokine production (TNF-alpha, IFN-gamma, IL-2) compared to control cells [1] | production of IFN-gamma compared to control cells [1] | tumor burden (bioluminescence) compared with DMSO vehicle (Raji cells) | survival compared to mice administered CAR-T cells expanded with DMSO vehicle (Raji cells) | frequency of polyfunctional cytokine profiles in CD8+ and CD4+ T cells vs control cells [2] | gene expression (RNA-Seq) compared to cells expanded with DMSO vehicle (CD4+ and/or CD8+ T cells) | secondary cytokine production following subsequent stimulation with antigen [3] | survival (Raji cells; high dose of CAR-T cells expanded with the inhibitor, for at least 80 days following tumor cell implant) [%] | frequency of CD8+ T cells that were CD107a+IFNγ+ ([3]; some donor-derived cells, day 11, Golgi Inhibitor 4 hours)
Oc1cccc(-c2nc(N3CCOCC3)c3oc4ncccc4c3n2)c1 [PI-103, reference compound] | improvements in cytokine production | improved | Reduced tumor burden | substantially improved survival | increased frequency of certain polyfunctional cytokine profiles | significantly changed gene expression | improved secondary cytokine production |  | 
CC(C)c1ccccc1-n1c(=O)[nH]c2c(C(N)=O)nc(-c3cccc(O)c3)nc21 [Compound 63, 2-(3-Hydroxyphenyl)-9-(2-isopropylphenyl)-8-oxo-8,9-dihydro-7H-purine-6-carboxamide] | improvements in cytokine production | improved | Reduced tumor burden | substantially improved survival | increased frequency of certain polyfunctional cytokine profiles | significantly changed gene expression | improved secondary cytokine production | 100 | increased frequency of CD8+ T cells that were CD107a+IFNγ+ cells
